Source: patent US20220257592A1, “METHODS OF TREATING CANCER” (HOFFMANN-LA ROCHE INC., priority 2019, published 2022)

Experiments:
[1] = molecular target: cytochrome P450 3A4 (CYP3A4) (Homo sapiens, UniProt P08684); assay: In vitro metabolism studies; assay type: in vitro ADME
TrkC = TrkC (Homo sapiens, UniProt Q16288); conditions: cited from earlier work

Question: What does the source list for `CN1CCN(c2ccc(C(=O)Nc3n[nH]c4ccc(Cc5cc(F)cc(F)c5)cc34)c(NC3CCOCC3)c2)CC1` [Entrectinib, N-[5-(3,5-difluorobenzyl)-1H-indazol-3-yl]-4-(4-methyl-piperazin-1-yl)-2-(tetrahydro-pyran-4-ylamino)-benzamide]?
Answer: CYP3A4 substrate status [1]: sensitive substrate of CYP3A4; route of clearance ([1]; in vitro studies): predominantly through hepatic metabolism; share of metabolism by CYP3A4 ([1]; in vitro studies): ~76%; inhibition of TrkC tyrosine kinase (TrkC): potent inhibitor
